According to PubChem BioAssay AID2060885 (Molecular Pharmacology Branch, DTP, NCI, 2025):

System: NCI-H23 complex spheroids with HUVEC/MSC, viability
Experiment: Anticancer human tumor NCI-H23 cell line growth inhibition [RAS];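 note: spheroids exposed to compound for 7 days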;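 for viability, T/C: 100% = DMSO vehicle control viability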
Settings: for IC50: curve of first compound; for viability, T/C: stronger effect = lower value; active = viability on the fitted dose curve at most 10% of control; inactive = the rest
How it was run: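 Agents were tested in combination matrices in half-log decrements from a top concentration at or near clinical Cmax (10 microM if undetermined). Targets were multi-cell spheroids of tumour lines plus HUVEC and MSC stromal cells.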

[1] = second compound 0.000949 µM, first compound 0.0316 µM
[2] = second compound 0.000949 µM, first compound 0.1 µM
[3] = second compound 0.000949 µM, first compound 0.316 µM
[4] = second compound 0.000949 µM, first compound 1 µM
[5] = second compound 0.000949 µM, first compound 3.16 µM
[6] = second compound 0.000949 µM, first compound 10 µM
[7] = second compound 0.003 µM, first compound 0.0316 µM
[8] = second compound 0.003 µM, first compound 0.1 µM
[9] = second compound 0.003 µM, first compound 0.316 µM
[10] = second compound 0.003 µM, first compound 1 µM
[11] = second compound 0.003 µM, first compound 3.16 µM
[12] = second compound 0.003 µM, first compound 10 µM
[13] = second compound 0.00949 µM, first compound 0.0316 µM
[14] = second compound 0.00949 µM, first compound 0.1 µM
[15] = second compound 0.00949 µM, first compound 0.316 µM
[16] = second compound 0.00949 µM, first compound 1 µM
[17] = second compound 0.00949 µM, first compound 3.16 µM
[18] = second compound 0.00949 µM, first compound 10 µM
[19] = second compound 0.03 µM, first compound 0.0316 µM
[20] = second compound 0.03 µM, first compound 0.1 µM
[21] = second compound 0.03 µM, first compound 0.316 µM
[22] = second compound 0.03 µM, first compound 1 µM
[23] = second compound 0.03 µM, first compound 3.16 µM
[24] = second compound 0.03 µM, first compound 10 µM
[25] = second compound 0.0949 µM, first compound 0.0316 µM
[26] = second compound 0.0949 µM, first compound 0.1 µM
[27] = second compound 0.0949 µM, first compound 0.316 µM
[28] = second compound 0.0949 µM, first compound 1 µM
[29] = second compound 0.0949 µM, first compound 3.16 µM
[30] = second compound 0.0949 µM, first compound 10 µM
[31] = second compound 0.3 µM, first compound 0.0316 µM
[32] = second compound 0.3 µM, first compound 0.1 µM
[33] = second compound 0.3 µM, first compound 0.316 µM
[34] = second compound 0.3 µM, first compound 1 µM
[35] = second compound 0.3 µM, first compound 3.16 µM
[36] = second compound 0.3 µM, first compound 10 µM

Cc1nc(N2CCC3(CC2)COC(C)C3N)c(CO)nc1Sc1ccnc(N)c1Cl (stereo unspecified) + CCn1c(-c2cccnc2C(C)OC)c2c3cc(ccc31)N1CCOC(CC(NC(=O)C(C(C)C)N(C)C(=O)C3(F)CCN(C(=O)C#CC(C)(C)N(C)C)CC3)C(=O)N3CCCC(N3)C(=O)OCC(C)(C)C2)C1
inactive: viability, T/C [1] 27.2% | viability, T/C [2] 21% | viability, T/C [3] 13.6% | viability, T/C [4] 15.3% | viability, T/C [5] 12.3% | viability, T/C [6] 9.03% | viability, T/C [7] 25.1% | viability, T/C [8] 20.2% | viability, T/C [9] 16.4% | viability, T/C [10] 16.7% | viability, T/C [11] 12.2% | viability, T/C [13] 24% | viability, T/C [14] 21.4% | viability, T/C [15] 18% | viability, T/C [16] 14.4% | viability, T/C [17] 11.5% | viability, T/C [19] 22.4% | viability, T/C [20] 19.1% | viability, T/C [21] 17.7% | viability, T/C [22] 11.7% | viability, T/C [23] 9.09% | viability, T/C [25] 20.3% | viability, T/C [26] 20.6% | viability, T/C [27] 15.1% | viability, T/C [28] 13.4% | viability, T/C [29] 8.28% | viability, T/C [31] 20% | viability, T/C [32] 17.1% | viability, T/C [33] 18.1% | viability, T/C [34] 11.3% | viability, T/C [35] 7.7%
< 31.6 nM: IC50 (second compound 0.000949 µM) | IC50 (second compound 0.003 µM) | IC50 (second compound 0.00949 µM) | IC50 (second compound 0.03 µM) | IC50 (second compound 0.0949 µM) | IC50 (second compound 0.3 µM)
active: viability, T/C [12] 8.35% | viability, T/C [18] 8.24% | viability, T/C [24] 9.82% | viability, T/C [30] 9.12% | viability, T/C [36] 9.33%

NC1c2ccccc2OC12CCN(c1cnc3c(N4CCCc5ncccc54)n[nH]c3n1)CC2 (stereo unspecified) + CCn1c(-c2cccnc2C(C)OC)c2c3cc(ccc31)N1CCOC(CC(NC(=O)C(C(C)C)N(C)C(=O)C3(F)CCN(C(=O)C#CC(C)(C)N(C)C)CC3)C(=O)N3CCCC(N3)C(=O)OCC(C)(C)C2)C1
inactive: viability, T/C [1] 19.7% | viability, T/C [2] 16.4% | viability, T/C [3] 10.6% | viability, T/C [7] 20.7% | viability, T/C [8] 15.8% | viability, T/C [9] 11.7% | viability, T/C [13] 18.1% | viability, T/C [14] 15% | viability, T/C [15] 11.4% | viability, T/C [19] 17.8% | viability, T/C [20] 14.9% | viability, T/C [21] 11.8% | viability, T/C [25] 15% | viability, T/C [26] 12.7% | viability, T/C [31] 16.5% | viability, T/C [32] 11.5%
< 31.6 nM: IC50 (second compound 0.000949 µM) | IC50 (second compound 0.003 µM) | IC50 (second compound 0.00949 µM) | IC50 (second compound 0.03 µM) | IC50 (second compound 0.0949 µM) | IC50 (second compound 0.3 µM)
active: viability, T/C [4] 9.5% | viability, T/C [5] 7.93% | viability, T/C [6] 5.17% | viability, T/C [10] 8.99% | viability, T/C [11] 6.81% | viability, T/C [12] 5.13% | viability, T/C [16] 9.87% | viability, T/C [17] 5.94% | viability, T/C [18] 5.23% | viability, T/C [22] 8.83% | viability, T/C [23] 5.09% | viability, T/C [24] 5.86% | viability, T/C [27] 10.3% | viability, T/C [28] 7.47% | viability, T/C [29] 5.66% | viability, T/C [30] 5.23% | viability, T/C [33] 9.55% | viability, T/C [34] 6.6% | viability, T/C [35] 6.48% | viability, T/C [36] 5.71%

Nc1ccn(C2OC(CO)C(O)C2(F)F)c(=O)n1 (stereo unspecified) + CCn1c(-c2cccnc2C(C)OC)c2c3cc(ccc31)N1CCOC(CC(NC(=O)C(C(C)C)N(C)C(=O)C3(F)CCN(C(=O)C#CC(C)(C)N(C)C)CC3)C(=O)N3CCCC(N3)C(=O)OCC(C)(C)C2)C1
active: viability, T/C (second compound 0.000949 µM, first compound 0.01 µM) 1.89% | viability, T/C [1] 1.33% | viability, T/C [2] 1.32% | viability, T/C [3] 1.35% | viability, T/C [4] 1.46% | viability, T/C (second compound 0.003 µM, first compound 0.01 µM) 1.78% | viability, T/C [7] 1.61% | viability, T/C [8] 1.5% | viability, T/C [9] 1.63% | viability, T/C [10] 2.39% | viability, T/C (second compound 0.00949 µM, first compound 0.01 µM) 1.69% | viability, T/C [13] 2.29% | viability, T/C [14] 1.8% | viability, T/C [15] 1.79% | viability, T/C [16] 1.41% | viability, T/C (second compound 0.03 µM, first compound 0.01 µM) 1.86% | viability, T/C [19] 1.31% | viability, T/C [20] 1.39% | viability, T/C [21] 1.75% | viability, T/C [22] 1.29% | viability, T/C (second compound 0.0949 µM, first compound 0.00316 µM) 7.86% | viability, T/C (second compound 0.0949 µM, first compound 0.01 µM) 1.71% | viability, T/C [25] 1.74% | viability, T/C [26] 1.51% | viability, T/C [27] 1.72% | viability, T/C [28] 1.81% | viability, T/C (second compound 0.3 µM, first compound 0.00316 µM) 7.88% | viability, T/C (second compound 0.3 µM, first compound 0.01 µM) 1.67% | viability, T/C [31] 1.78% | viability, T/C [32] 1.28% | viability, T/C [33] 1.59% | viability, T/C [34] 1.54%
inactive: viability, T/C (second compound 0.000949 µM, first compound 0.00316 µM) 11.4% | viability, T/C (second compound 0.003 µM, first compound 0.00316 µM) 12.7% | viability, T/C (second compound 0.00949 µM, first compound 0.00316 µM) 14.5% | viability, T/C (second compound 0.03 µM, first compound 0.00316 µM) 12.3%
< 3.16 nM: IC50 (second compound 0.000949 µM) | IC50 (second compound 0.003 µM) | IC50 (second compound 0.00949 µM) | IC50 (second compound 0.03 µM) | IC50 (second compound 0.0949 µM) | IC50 (second compound 0.3 µM)
